Series [1] has as its system B16F1 cells. Put plainly: FACS analysis of apoptotic cells. The series is classed as cell-based, mouse.
The next series relates to phospho p53 protein. Put plainly: Western blot analysis of phospho p53. The series is classed as cell-based, mouse. The following applies: B16F1 cells; different time intervals. As for the experimental part:
After treatment of QAGlc for different time intervals, cells were lysed in RIPA buffer [10 mmol Tris-HCL (pH 7.4), 1% deoxycholate, 1% NP40, 150 mmol NaCl, 0.1% SDS, 0.2 mmol phenylmethyl sulfonyl fluoride, 1 mg/L aprotinin and 1 mg/L leupeptin] for 30 min on ice. The lysates were centrifuged at 12,000×g for 15 min to remove debris. Protein samples were resolved using a […] Novex gradient gel (Invitrogen, USA), electrotransferred onto a nitrocellulose membrane, and blocked with 10% skim milk. Monoclonal antibodies of phosphorylated p-53 (Cat. No, Chemicon, CA, USA) were used to detect phosphor-p53 protein using chemiluminescent ECL assay kit (Amersham Pharmacia Biosciences, NJ, USA) according to the manufacturer's instructions. Western blot bands were quantified using ImageMaster software (Amersham Pharmacia Biosciences, NJ, USA). The result was represented in FIG. 8.

The test system of a further series is p21. Briefly: RT-PCR of p21 mRNA. It counts as cell-based, mouse. The settings on record: B16F1 cells; time dependant. The protocol: (§1) B16F1 cells were treated with QAGlc and total RNA was extracted. PCR was carried out using RT-generated cDNA encoding p53, p21 and GSPDH with their specific primers to amplify p53 and G3PDH mRNA. PCR products were analyzed on a 2% agarose gel. The mRNA of G3PDH served as an internal control for sample loading and mRNA integrity. The result was represented in FIG. 5.

The test system of a further series is p53. Put plainly: RT-PCR of p53 mRNA. The settings on record: B16F1 cells. The series is classed as cell-based, mouse. As for the experimental part: as §1
The next series relates to p53 gene. Briefly: p53-luc gene reporter assay. It counts as cell-based, mouse. The settings on record: B16F1 cells. As for the experimental part:
(§2) B16F1 cells were transfected with p53-luc, p21-Luc reporter vectors and β-galactosidase expression vector by lipofectamine (Invitrogen) transfection method. After 24 h of transfection, cells were subcultured into 24 well plates and cells treated with different concentrations of QAGlc. The luciferase activity value was normalized to transfection efficiency monitored by the cotransfected β-galactosidase expression vector. The level of induction of luciferase was determined as a ratio in comparison to cells with no stimulation. The result was represented in FIG. 6.

In another series the test system is p21 gene. Put plainly: p21-Luc gene reporter assay. The series is classed as cell-based, mouse. The settings on record: B16F1 cells; all concentrations; compared to the control. As for the experimental part: as §2
According to the method described above, p21 gene was transfected to B16F1 cells according to the method described above and gene expression after the treatment of QAGlc was determined by relative luciferase activity. The result was represented in FIG. 7.

Series [2] deals with B16F1 cells. Briefly: Detection of apoptosis by DNA fragmentation assay. The series is classed as cell-based, mouse. As for the experimental part:
In order to examine anticancer effect and mechanism of QAGlc, B16F1 cells cultured in 10 cm culture dishes were pre-treated with different concentrations of QAGlc and apoptosis was induced with 2 mM H2O2. Then, cell incubation was performed for different time periods. Cell was rinsed and total DNA was extracted with the standard procedure. DNA was electrophoresed on a 2% agarose gel and DNA fraction was visualized using ethedium bromide staining. The result was represented in FIG. 3.
B16F1 cells cultured in 10 cm culture dishes were pretreated with different concentrations of QAGlc and apoptosis was induced with 2 mM H2O2. After incubating for 48 h, genomic DNA was extracted and electrophoresed on a 2% agarose gel. The result was represented in FIG. 4.

In series [3] the test system is B16F1 cells. Briefly: MTT cytotoxicity assay in B16F1 cells. The settings on record: after 48 h of incubation, concentrations below 0.01%. It counts as cell-based, mouse. The protocol: (§3) In order to assay the cell cytotoxicity of glucosamine and quaternized amino glucosamine on colon cancer cell (SW480), lung cancer cell (A549), mouse melanoma cell (B16F1), leukemia cancer cell (HL60) and liver cancer cell (Hep3B), MTT assay was performed with different sample concentrations and incubation time intervals.
(§4) Cells were cultured in microtiter 96-well plates with serum free media and treated with different sample concentrations for varying time intervals and anticancer effect was assessed using MTT cell viability assay. The result was represented in FIG. 2. […] Moreover, the effect was concentration dependent.
B16F1 cells were treated with different concentrations of quaternized amino glucosamine and cytotoxicity was determined using MTT assay. […] This effect could be confirmed when the B16F1 cells were transfected with promoter plasmids of p53 and p21 treated with different concentrations of QAGlc. Induction of phosphor p53 observed in western blot analysis further confirmed that quaternized amino glucosamine induce apoptosis via p53 dependant pathway.

For series [4], the system named is colon cancer cell (SW480), lung cancer cell (A549), mouse melanoma cell (B16F1), leukemia cancer cell (HL60) and liver cancer cell (Hep3B). Put plainly: MTT cell viability assay on various cancer cells. The series is classed as cell-based. The settings on record: after 36 h of treatment; effect concentration dependent; serum free media. As for the experimental part:
as §3, §4

Where [5] appears, read: after 24 h and 36 h of incubation.

As to `C[N+](C)(C)CC(O)CNC1[C@H](O)OC(CO)[C@@H](O)[C@H]1O` (stereo partly drawn) [QAGlc, quaternized amino glucosamine], the “production of apoptotic cells” value with B16F1 cells [1] is reported as “increase the production of apoptotic cells”. In addition, the “phospho p53 protein level” value with phospho p53 protein is reported as “increase phospho p53 protein level in a time dependant manner”. The “induction of p21 gene (RT-PCR products)” value with p21 is “induction of p53 and p21 genes in time dependant manner”. The p53 transcription result in the series on p53 (setting [5]) is on record as “up-regulated”. In the series with p53 (setting [5]), the “p53 transcription compared with etoposide” value is recorded as “much higher than that of etoposide”. Also, in the series on p53 (time dependant), the “induction of p53 gene (RT-PCR products)” value is “induction of p53 and p21 genes in time dependant manner”. Moreover, in the series on p53 gene (100 μg/ml), the “p53 gene expression effect relative to etaposide” value came out at 2 fold. Moreover, the “p53 gene expression (luciferase reporter)” value with p53 gene (different concentrations) was “up-regulated dose dependently”. In the series on p21 gene, the “p21 gene expression (relative luciferase activity)” value is given as “significantly enhanced”. The “incubation time after which DNA damage was first observed” value with B16F1 cells [2] (100 μg/ml, apoptosis induced with 2 mM H2O2) is 36 h. The “DNA damage (DNA fragmentation)” value is “higher DNA damage” with B16F1 cells [2] (48 h incubation, 100 μg/ml); “higher DNA damage dose-dependently” in the series on B16F1 cells [2] (48 h incubation, different concentrations, 2 mM H2O2); “clear effect DNA damage by all the tested concentrations dose-dependently” in the series on B16F1 cells [2] (prolonged incubation (after 36 h), all tested concentrations). Besides, the “anticancer effect (cytotoxicity, MTT)” value in the series on B16F1 cells [3] is given as “clear anticancer effect was observed”. Moreover, in series [4], the “anticancer effect (cell cytotoxicity, MTT)” value is reported as “clear anticancer effect”.
